#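 Growth conditions: 96-well plates. Treatment: test compound, 48 hours, 5 concentrations. Analysis: linear interpolation between bracketing concentrations; unreached endpoints set to highest concentration. TGI: total growth inhibition.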
# How the values were obtained:
# Assay in all cases: DTP human tumour cell line panel, 48 h
# 786-0 renal = tested on: 786-0 renal
# A498 renal = tested on: A498 renal
# A549 NSCLC = tested on: A549 NSCLC
# ACHN renal = tested on: ACHN renal
# BT-549 breast = tested on: BT-549 breast
# CAKI-1 renal = tested on: CAKI-1 renal
# CCRF-CEM leukemia = tested on: CCRF-CEM leukemia
# COLO 205 colon = tested on: COLO 205 colon
# DU-145 prostate = tested on: DU-145 prostate
# EKVX NSCLC = tested on: EKVX NSCLC
# HCC-2998 colon = tested on: HCC-2998 colon
# HCT-116 colon = tested on: HCT-116 colon
# HCT-15 colon = tested on: HCT-15 colon
# HL-60(TB) leukemia = tested on: HL-60(TB) leukemia
# HOP-62 NSCLC = tested on: HOP-62 NSCLC
# HOP-92 NSCLC = tested on: HOP-92 NSCLC
# HS 578T breast = tested on: HS 578T breast
# HT29 colon = tested on: HT29 colon
# IGROV1 ovarian = tested on: IGROV1 ovarian
# K-562 leukemia = tested on: K-562 leukemia
# KM12 colon = tested on: KM12 colon
# LOX IMVI melanoma = tested on: LOX IMVI melanoma
# M14 melanoma = tested on: M14 melanoma
# MALME-3M melanoma = tested on: MALME-3M melanoma
# MCF7 breast = tested on: MCF7 breast
# MDA-MB-231 breast = tested on: MDA-MB-231 breast
# MDA-MB-435 = tested on: MDA-MB-435
# MDA-N = tested on: MDA-N
# MOLT-4 leukemia = tested on: MOLT-4 leukemia
# NCI-H226 lung = tested on: NCI-H226 lung
# NCI-H23 lung = tested on: NCI-H23 lung
# NCI-H460 lung = tested on: NCI-H460 lung
# NCI-H522 lung = tested on: NCI-H522 lung
# NCI/ADR-RES ovarian = tested on: NCI/ADR-RES ovarian
# OVCAR-3 ovarian = tested on: OVCAR-3 ovarian
# OVCAR-4 ovarian = tested on: OVCAR-4 ovarian
# OVCAR-5 ovarian = tested on: OVCAR-5 ovarian
# OVCAR-8 ovarian = tested on: OVCAR-8 ovarian
# PC-3 prostate = tested on: PC-3 prostate
# RPMI-8226 leukemia = tested on: RPMI-8226 leukemia
# RXF 393 renal = tested on: RXF 393 renal
# SF-268 CNS = tested on: SF-268 CNS
# SF-295 CNS = tested on: SF-295 CNS
# SF-539 CNS = tested on: SF-539 CNS
# SK-MEL-2 melanoma = tested on: SK-MEL-2 melanoma
# SK-MEL-28 melanoma = tested on: SK-MEL-28 melanoma
# SK-MEL-5 melanoma = tested on: SK-MEL-5 melanoma
# SK-OV-3 ovarian = tested on: SK-OV-3 ovarian
# SN12C renal = tested on: SN12C renal
# SNB-19 CNS = tested on: SNB-19 CNS
# SNB-75 CNS = tested on: SNB-75 CNS
# SR leukemia = tested on: SR leukemia
# SW-620 colon = tested on: SW-620 colon
# T-47D breast = tested on: T-47D breast
# TK-10 renal = tested on: TK-10 renal
# U251 CNS = tested on: U251 CNS
# UACC-257 melanoma = tested on: UACC-257 melanoma
# UACC-62 melanoma = tested on: UACC-62 melanoma
# UO-31 renal = tested on: UO-31 renal
# DLD-1 colon = tested on: DLD-1 colon
# DMS 114 small cell lung = tested on: DMS 114 small cell lung
# LXFL 529 NSCLC = tested on: LXFL 529 NSCLC
# M19-MEL melanoma = tested on: M19-MEL melanoma
# SNB-78 CNS = tested on: SNB-78 CNS
# XF 498 CNS = tested on: XF 498 CNS
smiles,measurement,setting,value
COC1(C)CP(=O)(OC(C)C)CC(C)=C1Cl (stereo not given),TGI,786-0 renal,60 µM
same,TGI,A498 renal,37.6 µM
same,TGI,A549 NSCLC,> 100 µM
same,TGI,ACHN renal,> 100 µM
same,TGI,BT-549 breast,46.6 µM
same,TGI,CAKI-1 renal,36.8 µM
same,TGI,CCRF-CEM leukemia,15.7 µM
same,TGI,COLO 205 colon,30.2 µM
same,TGI,DU-145 prostate,82.7 µM
same,TGI,EKVX NSCLC,29.6 µM
same,TGI,HCC-2998 colon,49.1 µM
same,TGI,HCT-116 colon,21 µM
same,TGI,HCT-15 colon,29.2 µM
same,TGI,HL-60(TB) leukemia,29.1 µM
same,TGI,HOP-62 NSCLC,51.7 µM
same,TGI,HOP-92 NSCLC,25.6 µM
same,TGI,HS 578T breast,> 100 µM
same,TGI,HT29 colon,26.5 µM
same,TGI,IGROV1 ovarian,29.6 µM
same,TGI,K-562 leukemia,7.89 µM
same,TGI,KM12 colon,34 µM
same,TGI,LOX IMVI melanoma,39.4 µM
same,TGI,M14 melanoma,46.2 µM
same,TGI,MALME-3M melanoma,40.8 µM
same,TGI,MCF7 breast,18.6 µM
same,TGI,MDA-MB-231 breast,34.1 µM
same,TGI,MDA-MB-435,> 100 µM
same,TGI,MDA-N,47.7 µM
same,TGI,MOLT-4 leukemia,> 100 µM
same,TGI,NCI-H226 lung,78.2 µM
same,TGI,NCI-H23 lung,32.4 µM
same,TGI,NCI-H460 lung,66.3 µM
same,TGI,NCI-H522 lung,24.8 µM
same,TGI,NCI/ADR-RES ovarian,> 100 µM
same,TGI,OVCAR-3 ovarian,24.2 µM
same,TGI,OVCAR-4 ovarian,28.6 µM
same,TGI,OVCAR-5 ovarian,39 µM
same,TGI,OVCAR-8 ovarian,> 100 µM
same,TGI,PC-3 prostate,77.9 µM
same,TGI,RPMI-8226 leukemia,24.4 µM
same,TGI,RXF 393 renal,55.2 µM
same,TGI,SF-268 CNS,> 100 µM
same,TGI,SF-295 CNS,51 µM
same,TGI,SF-539 CNS,39.2 µM
same,TGI,SK-MEL-2 melanoma,45.9 µM
same,TGI,SK-MEL-28 melanoma,61.3 µM
same,TGI,SK-MEL-5 melanoma,26.6 µM
same,TGI,SK-OV-3 ovarian,> 100 µM
same,TGI,SN12C renal,45.8 µM
same,TGI,SNB-19 CNS,63.7 µM
same,TGI,SNB-75 CNS,> 100 µM
same,TGI,SR leukemia,> 100 µM
same,TGI,SW-620 colon,32.4 µM
same,TGI,T-47D breast,55.6 µM
same,TGI,TK-10 renal,33.2 µM
same,TGI,U251 CNS,48.9 µM
same,TGI,UACC-257 melanoma,72.1 µM
same,TGI,UACC-62 melanoma,25.6 µM
same,TGI,UO-31 renal,34.2 µM
CCc1ccccc1NC(=O)C1=C(C)NC(C)=C(C(=O)Nc2ccccc2CC)C1c1ccc2c(c1)OCO2,TGI,786-0 renal,> 100 µM
same,TGI,A498 renal,81.5 µM
same,TGI,A549 NSCLC,> 100 µM
same,TGI,ACHN renal,90.7 µM
same,TGI,CAKI-1 renal,88.5 µM
same,TGI,CCRF-CEM leukemia,84.4 µM
same,TGI,COLO 205 colon,> 100 µM
same,TGI,DLD-1 colon,> 100 µM
same,TGI,DMS 114 small cell lung,> 100 µM
same,TGI,EKVX NSCLC,> 100 µM
same,TGI,HCC-2998 colon,41 µM
same,TGI,HL-60(TB) leukemia,47.8 µM
same,TGI,HOP-62 NSCLC,59.8 µM
same,TGI,HOP-92 NSCLC,60.1 µM
same,TGI,HT29 colon,> 100 µM
same,TGI,IGROV1 ovarian,> 100 µM
same,TGI,K-562 leukemia,> 100 µM
same,TGI,KM12 colon,50.6 µM
same,TGI,LOX IMVI melanoma,88.7 µM
same,TGI,LXFL 529 NSCLC,98.4 µM
same,TGI,M14 melanoma,> 100 µM
same,TGI,M19-MEL melanoma,> 100 µM
same,TGI,MALME-3M melanoma,99 µM
same,TGI,MOLT-4 leukemia,> 100 µM
same,TGI,NCI-H226 lung,81.4 µM
same,TGI,NCI-H23 lung,> 100 µM
same,TGI,NCI-H460 lung,> 100 µM
same,TGI,NCI-H522 lung,> 100 µM
same,TGI,OVCAR-3 ovarian,84 µM
same,TGI,OVCAR-4 ovarian,92 µM
same,TGI,OVCAR-5 ovarian,82.9 µM
same,TGI,OVCAR-8 ovarian,> 100 µM
same,TGI,RPMI-8226 leukemia,49.5 µM
same,TGI,RXF 393 renal,94.1 µM
same,TGI,SF-268 CNS,> 100 µM
same,TGI,SF-295 CNS,> 100 µM
same,TGI,SF-539 CNS,45.8 µM
same,TGI,SK-MEL-2 melanoma,53.1 µM
same,TGI,SK-MEL-28 melanoma,> 100 µM
same,TGI,SK-MEL-5 melanoma,> 100 µM
same,TGI,SK-OV-3 ovarian,> 100 µM
same,TGI,SN12C renal,> 100 µM
same,TGI,SNB-19 CNS,> 100 µM
same,TGI,SNB-75 CNS,89.3 µM
same,TGI,SNB-78 CNS,> 100 µM
same,TGI,SW-620 colon,> 100 µM
same,TGI,TK-10 renal,> 100 µM
same,TGI,U251 CNS,97.1 µM
same,TGI,UACC-257 melanoma,> 100 µM
same,TGI,UO-31 renal,70.5 µM
same,TGI,XF 498 CNS,70.4 µM

# — PubChem BioAssay (NCI)
